Experimental data taken from US11753395B2 (Kinnate Biopharma Inc., priority 2021, dated 2023).
pEC50, pIC50: −log10 of the molar value.

Key:
MET D1228N = target: T1, MET D1228N (Homo sapiens, UniProt P08581, D1228N); assay: MET D1228N Mobility Shift Assay; conditions: biochemical assay IC50; 100 μM ATP, 60 minute kinase reaction
T1 construct: purchased Signalchem M52-12IG
Procedure: (§1) Small molecule inhibition of MET D1228N kinase activity was evaluated using a fluorescence -based microfluidic mobility shift assay. MET D1228N catalyzes the production of ADP from ATP during phosphoryl transfer to the substrate peptide, FLPeptide30 (5-FAM-KKKKEEIYFFF -CONH2) (Perkin Elmer, 760430). MET D1228N enzyme (Signalchem, M52-12IG) at 0.313 nM was prepared with 10 mM MgCl2 and 1.5 μM substrate peptide in a buffer containing 50 mM HEPES, 1 mM EGTA, 0.01% Brij-35, 0.05% BSA, and 2 mM DTT and pre-incubated at room temperature for 30 min prior to the start of the reaction. 100 μM ATP was added to start the reaction. The mobility shift assay electrophoretically separates the fluorescently labeled peptides (substrate and phosphorylated product) following the 60 minute kinase reaction. The reaction was terminated by addition of 0.5 M EDTA. Both substrate and product were measured and the ratio of these values used to generate % conversion of substrate to product by the LabChip EZ reader (Perkin Elmer). ICso values were calculated using the inhibition of conversion ratio using Dotmatics Knowledge Solutions Studies curve fitting environment (Dotmatics, Bishops Stortford, UK, CM23) and are presented in Table 2.

[1] = target: T2, Ba/F3-TPR-MET-D1228N cells (Homo sapiens, UniProt P08581, D1228N, cells depend on it); assay: CellTiter-Glo Cell Viability Assay, Ba/F3-TPR-MET-D1228N; format: cell-based; conditions: 72 hours
T2 construct: fused on or other part: P12270 (Nucleoprotein TPR)
Procedure: (§2) Ba/F3-TPR-MET and Ba/F3-TPR-MET-D1228N cells were seeded at 3000 cells per well in a 96 well plate in 90 μL growth media and allowed to incubate overnight at 37° C. with 5% CO2. The following day, compounds were serially diluted from a 10 mM top dose for a 9-point 3-fold dilution curve in DMSO. Following a 100-fold dilution in growth media, a further 10-fold dilution was made into the cell plate for a final volume of 100 μL and 0.1% DMSO. Compounds and cells were incubated together for 72 hours at 37° C. with 5% CO2. The CellTiter-Glo® 2.0 Assay determines the number of viable cells in culture by quantifying ATP, which indicates the presence of metabolically active cells. Luminescence readout is directly proportional to the number of viable cells in culture. CellTiter-Glo reagent (Promega, G9243) and cell plates were allowed to equilibrate to room temperature for at least 15 min, then 100 μL of CellTiter-Glo was added to each well for a 1:1 ratio of reagent to media. Samples were placed on a shaker for 2 min prior to a 30 min incubation at room temperature protected from light. Luminescence was read on a Perkin Elmer Envision plate reader 2105 and used to calculate ICso values within the Dotmatics Knowledge Solutions Studies curve fitting environment (Dotmatics, Bishops Stortford, UK, CM23) and are presented in Table 2.

Ba/F3-TPR-MET cells = target: T3, Ba/F3-TPR-MET cells (Homo sapiens, UniProt P08581); assay: CellTiter-Glo Cell Viability Assay, Ba/F3-TPR-MET; format: cell-based; conditions: 72 hours
T3 construct: fused on or other part: P12270 (Nucleoprotein TPR)
Procedure: as §2

MET = target: T4, MET (Homo sapiens, UniProt P08581); assay: MET Mobility Shift Assay; conditions: biochemical assay IC50; 100 μM ATP, 60 minute kinase reaction
T4 construct: purchased Carna Biosciences 08-151
Procedure: as §1, with “MET” for “MET D1228N”, “a fluorescence-based” for “a fluorescence -based”, “FLPeptide30 (5-FAM-KKKKEEIYFFF-CONH2)” for “FLPeptide30 (5-FAM-KKKKEEIYFFF -CONH2)”, “MET enzme (Carna Biosciences, 08-151)” for “MET D1228N enzyme (Signalchem, M52-12IG)”, “at 0.625” for “at 0.313”

T4 sequence (P08581 25-1390): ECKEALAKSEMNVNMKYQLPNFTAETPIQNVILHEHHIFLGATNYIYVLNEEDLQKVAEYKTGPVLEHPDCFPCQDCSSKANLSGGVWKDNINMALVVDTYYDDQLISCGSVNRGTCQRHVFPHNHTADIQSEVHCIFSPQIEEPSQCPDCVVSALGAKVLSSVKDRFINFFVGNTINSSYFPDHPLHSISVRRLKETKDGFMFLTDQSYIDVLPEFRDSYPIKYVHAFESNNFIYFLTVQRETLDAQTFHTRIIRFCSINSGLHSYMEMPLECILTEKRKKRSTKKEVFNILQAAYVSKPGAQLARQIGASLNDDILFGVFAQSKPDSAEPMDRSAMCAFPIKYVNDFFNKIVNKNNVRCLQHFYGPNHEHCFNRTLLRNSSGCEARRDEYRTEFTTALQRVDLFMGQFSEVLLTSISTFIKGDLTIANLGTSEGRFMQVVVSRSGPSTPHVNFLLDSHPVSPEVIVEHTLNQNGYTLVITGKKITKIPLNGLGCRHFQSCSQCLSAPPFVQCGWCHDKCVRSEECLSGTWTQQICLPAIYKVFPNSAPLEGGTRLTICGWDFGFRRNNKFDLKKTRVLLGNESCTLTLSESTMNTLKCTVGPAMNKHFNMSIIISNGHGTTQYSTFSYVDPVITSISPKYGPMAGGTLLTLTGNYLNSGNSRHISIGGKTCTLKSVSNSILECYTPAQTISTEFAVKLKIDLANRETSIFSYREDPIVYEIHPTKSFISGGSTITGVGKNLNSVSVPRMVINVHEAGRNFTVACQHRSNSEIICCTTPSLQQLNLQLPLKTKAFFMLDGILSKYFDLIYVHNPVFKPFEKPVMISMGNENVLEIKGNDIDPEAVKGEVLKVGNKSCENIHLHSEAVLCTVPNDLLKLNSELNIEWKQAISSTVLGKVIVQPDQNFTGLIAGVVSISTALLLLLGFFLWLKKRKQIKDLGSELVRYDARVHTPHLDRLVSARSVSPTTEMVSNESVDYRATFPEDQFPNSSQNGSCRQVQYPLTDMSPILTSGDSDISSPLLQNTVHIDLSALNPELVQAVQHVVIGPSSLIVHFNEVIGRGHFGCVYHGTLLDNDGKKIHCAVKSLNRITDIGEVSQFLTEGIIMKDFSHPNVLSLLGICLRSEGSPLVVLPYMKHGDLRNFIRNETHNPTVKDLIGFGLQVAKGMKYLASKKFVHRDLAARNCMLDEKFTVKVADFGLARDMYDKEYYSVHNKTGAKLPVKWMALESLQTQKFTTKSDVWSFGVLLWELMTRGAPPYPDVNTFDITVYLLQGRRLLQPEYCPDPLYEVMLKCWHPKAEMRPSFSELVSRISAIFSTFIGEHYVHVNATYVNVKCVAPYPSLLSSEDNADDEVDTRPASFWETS
T2 sequence (P08581 whole entry D1228N, the tested form may be a part): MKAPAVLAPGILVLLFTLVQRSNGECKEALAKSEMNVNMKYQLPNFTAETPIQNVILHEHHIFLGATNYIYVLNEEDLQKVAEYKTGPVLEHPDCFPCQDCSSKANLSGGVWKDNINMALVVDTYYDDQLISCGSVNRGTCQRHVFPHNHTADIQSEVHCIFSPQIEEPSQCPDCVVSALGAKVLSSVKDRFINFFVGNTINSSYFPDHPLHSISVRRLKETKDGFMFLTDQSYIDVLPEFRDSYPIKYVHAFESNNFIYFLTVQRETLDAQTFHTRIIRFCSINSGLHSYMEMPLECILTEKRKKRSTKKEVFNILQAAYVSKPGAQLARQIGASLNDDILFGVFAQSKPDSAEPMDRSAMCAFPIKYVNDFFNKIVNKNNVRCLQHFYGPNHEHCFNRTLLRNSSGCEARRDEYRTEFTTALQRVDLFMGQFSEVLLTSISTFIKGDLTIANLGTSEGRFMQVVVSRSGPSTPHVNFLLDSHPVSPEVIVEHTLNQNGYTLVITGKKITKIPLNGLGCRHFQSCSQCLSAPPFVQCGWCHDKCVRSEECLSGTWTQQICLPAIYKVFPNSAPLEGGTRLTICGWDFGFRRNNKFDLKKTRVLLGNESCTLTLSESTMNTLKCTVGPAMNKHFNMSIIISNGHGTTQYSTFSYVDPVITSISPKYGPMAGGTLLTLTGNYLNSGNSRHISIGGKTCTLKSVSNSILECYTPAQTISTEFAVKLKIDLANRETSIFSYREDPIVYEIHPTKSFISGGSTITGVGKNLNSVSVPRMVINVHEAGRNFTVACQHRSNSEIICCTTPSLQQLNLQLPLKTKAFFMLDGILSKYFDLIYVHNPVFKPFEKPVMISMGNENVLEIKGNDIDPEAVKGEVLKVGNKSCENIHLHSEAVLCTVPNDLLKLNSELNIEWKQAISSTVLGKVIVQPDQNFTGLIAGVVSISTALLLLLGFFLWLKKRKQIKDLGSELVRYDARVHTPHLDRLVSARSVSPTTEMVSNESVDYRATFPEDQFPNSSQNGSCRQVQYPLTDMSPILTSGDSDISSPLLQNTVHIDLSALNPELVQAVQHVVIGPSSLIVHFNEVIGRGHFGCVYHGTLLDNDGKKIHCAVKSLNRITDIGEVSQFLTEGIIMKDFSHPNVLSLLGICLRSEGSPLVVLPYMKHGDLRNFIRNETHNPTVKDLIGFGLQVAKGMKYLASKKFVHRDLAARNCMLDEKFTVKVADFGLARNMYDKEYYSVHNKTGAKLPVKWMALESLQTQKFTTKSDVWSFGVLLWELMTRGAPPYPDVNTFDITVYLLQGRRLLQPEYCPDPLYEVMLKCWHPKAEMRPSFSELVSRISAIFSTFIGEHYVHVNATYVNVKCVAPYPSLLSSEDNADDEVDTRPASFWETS
T3 sequence (P08581 whole entry, change not shown, the tested form may be a part): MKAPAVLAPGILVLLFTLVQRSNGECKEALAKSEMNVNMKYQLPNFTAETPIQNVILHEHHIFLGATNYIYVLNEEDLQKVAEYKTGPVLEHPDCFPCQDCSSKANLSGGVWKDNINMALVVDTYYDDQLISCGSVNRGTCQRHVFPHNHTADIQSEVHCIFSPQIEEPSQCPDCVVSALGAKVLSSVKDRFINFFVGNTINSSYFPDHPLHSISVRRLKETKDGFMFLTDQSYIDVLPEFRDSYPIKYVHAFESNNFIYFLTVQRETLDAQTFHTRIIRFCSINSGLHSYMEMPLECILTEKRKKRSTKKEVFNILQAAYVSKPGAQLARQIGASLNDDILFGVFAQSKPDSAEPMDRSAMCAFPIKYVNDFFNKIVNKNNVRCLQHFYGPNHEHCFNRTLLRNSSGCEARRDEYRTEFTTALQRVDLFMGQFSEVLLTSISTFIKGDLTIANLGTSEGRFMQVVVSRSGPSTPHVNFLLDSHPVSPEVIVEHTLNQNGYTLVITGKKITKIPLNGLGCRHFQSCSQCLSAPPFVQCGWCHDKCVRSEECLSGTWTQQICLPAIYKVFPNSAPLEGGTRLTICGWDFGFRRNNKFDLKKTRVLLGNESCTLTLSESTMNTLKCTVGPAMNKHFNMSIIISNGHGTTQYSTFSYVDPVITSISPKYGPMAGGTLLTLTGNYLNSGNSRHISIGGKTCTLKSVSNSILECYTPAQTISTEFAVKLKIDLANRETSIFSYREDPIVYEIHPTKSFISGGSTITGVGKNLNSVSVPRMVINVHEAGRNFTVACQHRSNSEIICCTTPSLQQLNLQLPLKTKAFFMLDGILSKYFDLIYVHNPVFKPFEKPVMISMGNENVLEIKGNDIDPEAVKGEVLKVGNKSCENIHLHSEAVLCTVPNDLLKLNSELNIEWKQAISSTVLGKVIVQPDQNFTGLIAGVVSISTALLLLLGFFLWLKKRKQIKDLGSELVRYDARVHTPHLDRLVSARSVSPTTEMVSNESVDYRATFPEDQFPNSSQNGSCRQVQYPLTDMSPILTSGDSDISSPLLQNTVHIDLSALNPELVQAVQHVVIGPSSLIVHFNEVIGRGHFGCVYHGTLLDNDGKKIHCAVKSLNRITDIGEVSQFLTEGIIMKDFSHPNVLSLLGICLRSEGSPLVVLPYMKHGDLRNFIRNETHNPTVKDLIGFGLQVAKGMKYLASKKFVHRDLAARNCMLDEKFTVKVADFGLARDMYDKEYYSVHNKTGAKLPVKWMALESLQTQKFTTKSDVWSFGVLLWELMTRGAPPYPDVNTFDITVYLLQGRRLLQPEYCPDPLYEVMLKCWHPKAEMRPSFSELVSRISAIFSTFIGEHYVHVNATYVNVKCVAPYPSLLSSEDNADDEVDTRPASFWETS

Compound | pIC50 (MET D1228N) | pEC50 [1] | pEC50 (Ba/F3-TPR-MET cells) | pIC50 (MET)
CNCCCOc1cc2nccc(Nc3c(F)cc(NC(=O)c4cnccc4OC)cc3F)c2cc1OC [Example 19, N-(3,5-difluoro-4-((6-methoxy-7-(3-(methylamino)propoxy)quinolin-4-yl)amino)phenyl)-4-methoxypyridine-3-carboxamide] | ≥ 7.00 | < 5.00 | < 5.00 | ≥ 7.00
CNCCCOc1cc2nccc(Oc3c(F)cc(NC(=O)c4c(OC)ccnc4F)cc3F)c2cc1OC [Example 20, N-(3,5-difluoro-4-((6-methoxy-7-(3-(methylamino)propoxy)quinolin-4-yl)oxy)phenyl)-2-fluoro-4-methoxypyridine-3-carboxamide] | ≥ 7.00 | ≥ 7.00 | ≥ 7.00 | ≥ 7.00
CCOc1ccncc1C(=O)Nc1cc(F)c(Oc2ccnc3cc(OCCCNC)c(OC)cc23)c(F)c1 [Example 21, N-(3,5-difluoro-4-((6-methoxy-7-(3-(methylamino)propoxy)quinolin-4-yl)oxy)phenyl)-4-ethoxypyridine-3-carboxamide] | ≥ 7.00 | 6.00 to 7.00 | 6.00 to 7.00 | ≥ 7.00
CNCCCOc1cc2nccc(Oc3cc(F)c(NC(=O)c4cnccc4OC)cc3F)c2cc1OC [Example 22, N-[2,5-difluoro-4-({6-methoxy-7-[3-(methylamino)propoxy]quinolin-4-yl}oxy)phenyl]-4-methoxypyridine-3-carboxamide] | ≥ 7.00 | 6.00 to 7.00 | 6.00 to 7.00 | ≥ 7.00
CCOc1ccncc1C(=O)Nc1cc(F)c(Oc2ccnc3cc(OCCCN(C)C)c(OC)cc23)cc1F [Example 23, N-(4-((7-(3-(dimethylamino)propoxy)-6-methoxyquinolin-4-yl)oxy)-2,5-difluorophenyl)-4-ethoxypyridine-3-carboxamide] | ≥ 7.00 | ≥ 7.00 | 6.00 to 7.00 | ≥ 7.00
CNCCOc1cc2nccc(Oc3cc(F)c(NC(=O)c4cnccc4OC)cc3F)c2cc1OC [Example 24, N-[2,5-difluoro-4-({6-methoxy-7-[2-(methylamino)ethoxy]quinolin-4-yl}oxy)phenyl]-4-methoxypyridine-3-carboxamide] | ≥ 7.00 | ≥ 7.00 | 6.00 to 7.00 | ≥ 7.00
CNCCOc1cc2nccc(Oc3cc(F)c(NC(=O)c4c(OC)ccnc4F)cc3F)c2cc1OC [Example 25, N-[2,5-difluoro-4-({6-methoxy-7-[2-(methylamino)ethoxy]quinolin-4-yl}oxy)phenyl]-2-fluoro-4-methoxypyridine-3-carboxamide] | ≥ 7.00 | 6.00 to 7.00 | 6.00 to 7.00 | ≥ 7.00
COc1cc2c(Oc3cc(F)c(NC(=O)c4cnccc4OC)cc3F)ccnc2cc1OCCCN1CCOCC1 [Example 27, N-[2,5-difluoro-4-({6-methoxy-7-[3-(morpholin-4-yl)propoxy]quinolin-4-yl}oxy)phenyl]-4-methoxypyridine-3-carboxamide] | ≥ 7.00 | 6.00 to 7.00 | 6.00 to 7.00 | ≥ 7.00
CCOc1ccncc1C(=O)Nc1cc(F)c(Oc2ccnc3cc(OCCCN4CCOCC4)c(OC)cc23)c(F)c1 [Example 28, N-(3,5-difluoro-4-((6-methoxy-7-(3-morpholinopropoxy)quinolin-4-yl)oxy)phenyl)-4-ethoxypyridine-3-carboxamide] | ≥ 7.00 | ≥ 7.00 | ≥ 7.00 | ≥ 7.00
COc1cc2c(Oc3c(F)cc(NC(=O)c4cnccc4OC)cc3F)ccnc2cc1OCCN1CCOCC1 [Example 29, N-[3,5-difluoro-4-({6-methoxy-7-[2-(morpholin-4-yl)ethoxy]quinolin-4-yl}oxy)phenyl]-4-methoxypyridine-3-carboxamide] | ≥ 7.00 | ≥ 7.00 | ≥ 7.00 | ≥ 7.00
COc1cc2c(Oc3c(F)cc(NC(=O)c4cnccc4OC)cc3F)ccnc2cc1OCCCN1CCOCC1 [Example 30, N-(3,5-difluoro-4-((6-methoxy-7-(3-morpholinopropoxy)quinolin-4-yl)oxy)phenyl)-4-methoxypyridine-3-carboxamide] | ≥ 7.00 | ≥ 7.00 | ≥ 7.00 | ≥ 7.00
COc1cc2c(Oc3cc(F)c(NC(=O)c4cnc(N)cc4OC)cc3F)ccnc2cc1OCCCN1CCOCC1 [Example 31, 6-amino-N-(2,5-difluoro-4-((6-methoxy-7-(3-morpholinopropoxy)quinolin-4-yl)oxy)phenyl)-4-methoxypyridine-3-carboxamide] | ≥ 7.00 | 6.00 to 7.00 | 6.00 to 7.00 | ≥ 7.00
CCOc1cc(N)ncc1C(=O)Nc1cc(F)c(Oc2ccnc3cc(OCCCN4CCOCC4)c(OC)cc23)cc1F [Example 32, 6-amino-N-[2,5-difluoro-4-({6-methoxy-7-[3-(morpholin-4-yl)propoxy]quinolin-4-yl}oxy)phenyl]-4-ethoxypyridine-3-carboxamide] | ≥ 7.00 | 6.00 to 7.00 | 6.00 to 7.00 | ≥ 7.00
COc1cc2nccc(Oc3c(F)cc(NC(=O)c4cnccc4OC)cc3F)c2cc1OC [Example 34, N-(4-((6,7-dimethoxyquinolin-4-yl)oxy)-3,5-difluorophenyl)-4-methoxypyridine-3-carboxamide] | ≥ 7.00 | ≥ 7.00 | 6.00 to 7.00 | ≥ 7.00
COc1ccc2c(Oc3c(F)cc(NC(=O)c4cnccc4OC)cc3F)ccnc2c1 [Example 35, N-{3,5-difluoro-4-[(7-methoxyquinolin-4-yl)oxy]phenyl}-4-methoxypyridine-3-carboxamide] | ≥ 7.00 | 6.00 to 7.00 | 6.00 to 7.00 | ≥ 7.00
COc1cc2nccc(Oc3c(F)cc(NC(=O)c4cnccc4OC)cc3F)c2cn1 [Example 36, N-{3,5-difluoro-4-[(7-methoxy-1,6-naphthyridin-4-yl)oxy]phenyl}-4-methoxypyridine-3-carboxamide] | ≥ 7.00 | 6.00 to 7.00 | 6.00 to 7.00 | ≥ 7.00
COc1cc2c(Oc3c(F)cc(NC(=O)c4cnccc4OC)cc3F)ccnc2cc1OC(F)(F)F [Example 37, N-(3,5-difluoro-4-((6-methoxy-7-(trifluoromethoxy)quinolin-4-yl)oxy)phenyl)-4-methoxypyridine-3-carboxamide] | ≥ 7.00 | 6.00 to 7.00 | 6.00 to 7.00 | ≥ 7.00
COc1cc2c(Oc3c(F)cc(NC(=O)c4cnccc4OC)cc3F)ccnc2cc1OC(F)F [Example 38, N-(4-((7-(difluoromethoxy)-6-methoxyquinolin-4-yl)oxy)-3,5-difluorophenyl)-4-methoxypyridine-3-carboxamide] | ≥ 7.00 | < 5.00 | < 5.00 | ≥ 7.00
COc1cc2c(Oc3c(F)cc(NC(=O)c4cnccc4OC)cc3F)ccnc2cc1OCC(C)(C)O [Example 39, N-(3,5-difluoro-4-((7-(2-hydroxy-2-methylpropoxy)-6-methoxyquinolin-4-yl)oxy)phenyl)-4-methoxypyridine-3-carboxamide] | ≥ 7.00 | ≥ 7.00 | 6.00 to 7.00 | ≥ 7.00
